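The compound was tested at five concentrations on cells cultured in 96-well plates, with a 48-hour exposure period. Abbreviation: GI50, concentration required for 50% inhibition of growth. At the TGI there is no net growth.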
Experiments:
Assay in all cases: DTP human tumour cell line panel, 48 h
[1] = test system: SR leukemia
[2] = test system: 786-0 renal
[3] = test system: HT29 colon
[4] = test system: OVCAR-8 ovarian
[5] = test system: HCT-116 colon
[6] = test system: M14 melanoma
[7] = test system: K-562 leukemia
[8] = test system: RXF 393 renal
[9] = test system: SK-MEL-2 melanoma
[10] = test system: MDA-MB-231 breast
[11] = test system: RPMI-8226 leukemia
[12] = test system: SW-620 colon
[13] = test system: OVCAR-4 ovarian
[14] = test system: HL-60(TB) leukemia
[15] = test system: MDA-MB-468 breast
[16] = test system: SK-MEL-5 melanoma
[17] = test system: SNB-19 CNS
[18] = test system: MDA-MB-435
[19] = test system: NCI-H226 lung
[20] = test system: SF-539 CNS
[21] = test system: HS 578T breast
[22] = test system: COLO 205 colon
[23] = test system: MALME-3M melanoma
[24] = test system: SN12C renal
[25] = test system: OVCAR-5 ovarian
[26] = test system: NCI-H23 lung
[27] = test system: A549 NSCLC
[28] = test system: HCT-15 colon
[29] = test system: SNB-75 CNS
[30] = test system: TK-10 renal
[31] = test system: PC-3 prostate
[32] = test system: BT-549 breast
[33] = test system: OVCAR-3 ovarian
[34] = test system: ACHN renal
[35] = test system: NCI-H460 lung
[36] = test system: SF-295 CNS
[37] = test system: SF-268 CNS
[38] = test system: UACC-257 melanoma
[39] = test system: HCC-2998 colon
[40] = test system: T-47D breast
[41] = test system: SK-OV-3 ovarian
[42] = test system: EKVX NSCLC
[43] = test system: DU-145 prostate
[44] = test system: MOLT-4 leukemia
[45] = test system: CCRF-CEM leukemia
[46] = test system: IGROV1 ovarian
[47] = test system: U251 CNS
[48] = test system: UACC-62 melanoma
[49] = test system: SK-MEL-28 melanoma
[50] = test system: MCF7 breast
[51] = test system: KM12 colon
[52] = test system: A498 renal
[53] = test system: CAKI-1 renal
[54] = test system: UO-31 renal
[55] = test system: HOP-92 NSCLC
[56] = test system: NCI-H522 lung
[57] = test system: HOP-62 NSCLC
[58] = test system: LOX IMVI melanoma
[59] = test system: NCI/ADR-RES ovarian

## O=C1Nc2ccc(F)cc2/C1=C/c1cccc(OCc2ccccc2)c1
[1]
  GI50: 4.83 µM
  TGI: 23.1 µM
[2]
  GI50: 14.5 µM
  TGI: 29.5 µM
[3]
  GI50: 17.8 µM
  TGI: 35.4 µM
[4]
  GI50: 20.1 µM
  TGI: 57.8 µM
[5]
  GI50: 10.5 µM
  TGI: 25.9 µM
[6]
  GI50: 14.9 µM
  TGI: 31.5 µM
[7]
  GI50: 10.5 µM
  TGI: 31.8 µM
[8]
  GI50: 13.7 µM
  TGI: 29.8 µM
[9]
  GI50: 12.9 µM
  TGI: 27.8 µM
[10]
  GI50: 13.8 µM
  TGI: 29.2 µM
[11]
  GI50: 10.7 µM
  TGI: 30.7 µM
[12]
  GI50: 15.1 µM
  TGI: 29.4 µM
[13]
  GI50: 9.89 µM
  TGI: 30.2 µM
[14]
  GI50: 11.7 µM
  TGI: 34.1 µM
[15]
  GI50: 10.8 µM
  TGI: 23.6 µM
[16]
  GI50: 15.8 µM
  TGI: 29.8 µM
[17]
  GI50: 14.2 µM
  TGI: 29.2 µM
[18]
  GI50: 15.1 µM
  TGI: 29 µM
[19]
  GI50: 12.5 µM
  TGI: 27.1 µM
[20]
  GI50: 14.8 µM
  TGI: 28.1 µM
[21]
  GI50: 15.4 µM
  TGI: 57.9 µM
[22]
  GI50: 17.8 µM
  TGI: 35.5 µM
[23]
  GI50: 15.5 µM
  TGI: 29 µM
[24]
  GI50: 13.4 µM
  TGI: 26.8 µM
[25]
  GI50: 16.5 µM
  TGI: 30.6 µM
[26]
  GI50: 11.7 µM
  TGI: 27.5 µM
[27]
  GI50: 18.6 µM
  TGI: 75 µM
[28]
  GI50: 11.9 µM
  TGI: 29.3 µM
[29]
  GI50: 14.7 µM
  TGI: 43.3 µM
[30]
  GI50: 19.6 µM
  TGI: 41.9 µM
[31]
  GI50: 13.8 µM
  TGI: 30.3 µM
[32]
  GI50: 10.5 µM
  TGI: 23.4 µM
[33]
  GI50: 11.8 µM
  TGI: 24.7 µM
[34]
  GI50: 13.5 µM
  TGI: 26.5 µM
[35]
  GI50: 14.1 µM
  TGI: 28.7 µM
[36]
  GI50: 15.2 µM
  TGI: 34.2 µM
[37]
  GI50: 14 µM
  TGI: 34.2 µM
[38]
  GI50: 16.8 µM
  TGI: 36.2 µM
[39]
  GI50: 16.3 µM
  TGI: 31.7 µM
[40]
  GI50: 12.1 µM
  TGI: 62 µM
[41]
  GI50: 16.7 µM
  TGI: 39.4 µM
[42]
  GI50: 12.8 µM
  TGI: 27.8 µM
[43]
  GI50: 14.8 µM
  TGI: 31.4 µM
[44]
  GI50: 6.85 µM
  TGI: 30.2 µM
[45]
  GI50: 12.4 µM
  TGI: 35.2 µM
[46]
  GI50: 13.4 µM
  TGI: 27.1 µM
[47]
  GI50: 12.6 µM
  TGI: 32.6 µM
[48]
  GI50: 10.4 µM
  TGI: 22.5 µM
[49]
  GI50: 16 µM
  TGI: 30.1 µM
[50]
  GI50: 5.44 µM
  TGI: 21.8 µM
[51]
  GI50: 13.7 µM
  TGI: 32.4 µM
[52]
  GI50: 29.7 µM
  TGI: > 100 µM
[53]
  GI50: 8.46 µM
  TGI: 21.7 µM
[54]
  GI50: 10 µM
  TGI: 21.7 µM
[55]
  GI50: 3.76 µM
  TGI: 17.1 µM
[56]
  GI50: 12.4 µM
  TGI: 27.3 µM
[57]
  GI50: 16.2 µM
  TGI: 37.1 µM
[58]
  GI50: 8.51 µM
  TGI: 28.7 µM

## O=C(NCCCCC(c1ccc(F)cc1)c1ccc(F)cc1)NCCCc1cccnc1
[1]
  GI50: 3.17 µM
  TGI: > 100 µM
[2]
  GI50: 13.3 µM
  TGI: 37.1 µM
[3]
  GI50: 0.619 µM
  TGI: 17 µM
[4]
  GI50: 0.127 µM
  TGI: 26.4 µM
[5]
  GI50: 0.0931 µM
  TGI: 13 µM
[6]
  GI50: 0.607 µM
  TGI: 16.4 µM
[7]
  GI50: 0.385 µM
  TGI: > 100 µM
[8]
  GI50: 12.4 µM
  TGI: 27.3 µM
[9]
  GI50: 4.24 µM
  TGI: 16.9 µM
[10]
  GI50: 4.94 µM
  TGI: 20.9 µM
[11]
  GI50: 0.627 µM
  TGI: 20.3 µM
[12]
  GI50: 0.297 µM
  TGI: 15.7 µM
[13]
  GI50: 4.71 µM
  TGI: 53.1 µM
[14]
  GI50: 1.64 µM
  TGI: > 39.4 µM
[15]
  GI50: 1.53 µM
  TGI: 10.6 µM
[16]
  GI50: 1.22 µM
  TGI: 9.46 µM
[17]
  GI50: 1.79 µM
  TGI: 18.5 µM
[18]
  GI50: 0.444 µM
  TGI: 15 µM
[19]
  GI50: 12.3 µM
  TGI: 29 µM
[20]
  GI50: 0.0974 µM
  TGI: 11.9 µM
[21]
  GI50: 5.04 µM
  TGI: 34.9 µM
[22]
  GI50: 0.877 µM
  TGI: 16.2 µM
[23]
  GI50: 8.47 µM
  TGI: 21.7 µM
[24]
  GI50: 0.133 µM
  TGI: 15.2 µM
[25]
  GI50: 0.628 µM
  TGI: 17.8 µM
[26]
  GI50: 6.8 µM
  TGI: 23 µM
[27]
  GI50: 2.62 µM
  TGI: 40.5 µM
[28]
  GI50: 0.461 µM
  TGI: 14.9 µM
[29]
  GI50: 8.64 µM
  TGI: 26.8 µM
[30]
  GI50: 13.7 µM
  TGI: 29.2 µM
[31]
  GI50: 0.645 µM
  TGI: 19 µM
[32]
  GI50: 3.21 µM
  TGI: 15.3 µM
[33]
  GI50: 4.58 µM
  TGI: 22.4 µM
[34]
  GI50: 9.16 µM
  TGI: 22.8 µM
[35]
  GI50: 3.23 µM
  TGI: 19.4 µM
[36]
  GI50: 1.82 µM
  TGI: 15.4 µM
[37]
  GI50: 12.3 µM
  TGI: 29.2 µM
[38]
  GI50: 9.06 µM
  TGI: 23.8 µM
[39]
  GI50: 0.822 µM
  TGI: 17.3 µM
[40]
  GI50: 0.749 µM
  TGI: 16.1 µM
[41]
  GI50: 10.9 µM
  TGI: 29 µM
[42]
  GI50: 5.01 µM
  TGI: 23.6 µM
[43]
  GI50: 0.721 µM
  TGI: 17.2 µM
[44]
  GI50: 1.13 µM
  TGI: > 50.5 µM
[45]
  GI50: 0.33 µM
  TGI: 24.6 µM
[46]
  GI50: 0.816 µM
  TGI: 19.2 µM
[47]
  GI50: 3.88 µM
  TGI: 22.1 µM
[48]
  GI50: 7.11 µM
  TGI: 20.2 µM
[49]
  GI50: 10.6 µM
  TGI: 23.5 µM
[50]
  GI50: 3.61 µM
  TGI: 20.3 µM
[51]
  GI50: 0.81 µM
  TGI: 18.4 µM
[52]
  GI50: 18.3 µM
  TGI: 32.9 µM
[53]
  GI50: 5.87 µM
  TGI: 25.3 µM
[54]
  GI50: 5.51 µM
  TGI: 20.1 µM
[55]
  GI50: 10.4 µM
  TGI: 26.5 µM
[59]
  GI50: 0.584 µM
  TGI: 17.3 µM
[56]
  GI50: 0.546 µM
  TGI: 16.1 µM
[57]
  GI50: 14.6 µM
  TGI: 30.2 µM
[58]
  GI50: 10.7 µM
  TGI: 23.4 µM

From PubChem BioAssay (NCI)
